Test [1] concerns younger postmenopausal women. The conditions noted are these: 10 000 U vitamin D3/wk added to calcium 1000 mg/d, postmenopausal women (age: 56 y); Cooper et al. 2003; cited from earlier work.
For test [2] the following is noted: vitamin D3 added to estrogen therapy; Tuppurainen et al. 1998; cited from earlier work.
Test [3] relates to ovariectomized rats. Briefly: Genistein dose-ranging preclinical study: serum markers of bone resorption and formation. The test is classed as in vivo, Sprague-Dawley rats. Here is the method:
(§1) This study was carried out to evaluate the effects of different human dose equivalents of genistein (aglycone) alone, or in combination with supplemental calcium carbonate and vitamin D3, on bone density, markers, and histology in ovariectomized rats. Forty-eight three month old ovariectomized (OVX) female Sprague-Dawley rats were purchased from Charles River Laboratories. Animals were maintained in plastic cages under standard environmental conditions with water and standard rat chow available ad libitum at the Animal Facility of the Department of Clinical and Experimental Medicine and Pharmacology of the University of Messina, Messina, Italy. After 1 week of acclimation, animals were randomly assigned to 12 different treatment groups that lasted for 6 weeks as summarized in Table 1 below:
(§2) Genistein doses were converted into human equivalents by using the following formula: (human dose in mg/m^2)=(kin)×(dose in mg/kg) where human m^2 for a person of 60 kg (considered as a medium weight for our cohort of post-menopausal women) is 1.62 and km is the conversion factor (for a rat of 250 gr is 7.0) {Freireich, 1966 4611/id. Genistein was diluted in a 1:1 solution of 0.9% NaCl and DMSO and administered by intraperitoneal injection. Animals received 50% supplementation of their normal daily intake of calcium and vitamin D3 (50.4 IU/kg/day) by oral gavage, which equated to 366.52 mg/kg/day of calcium and 50.4 IU/kg/day of vitamin D3.
(§3) Bone mineral density of the right femur was measured using dual-energy X-ray absorptiometry. The coefficient of variation for femur BMD was 1.16%. Animals were maintained under controlled conditions for 6 weeks, at the end of the experiments were sacrificed under general anaesthesia (with chloral hydrate 400 mg/kg/ip) after blood collection by cardiac puncture. Blood was centrifuged and serum stored immediately at −20° C. for analysis. Serum was used to quantify markers of bone resorption [soluble receptor activator of nuclear factor kappaB ligand (sRANKL) and C-terminal telopeptide (CTX)] and formation [bone-specific alkaline phosphatase and osteoprotegerin (OPG)].

The test system of test [4] is ovariectomized rats. Briefly: Genistein dose-ranging preclinical study: bone mineral density of the right femur by dual-energy X-ray absorptiometry. In kind it is in vivo, Sprague-Dawley rats. On the procedure:
as §1, §2, §3

Test [5] has as its system ovariectomized (OVX) female Sprague-Dawley rats. Briefly: Genistein bone architecture study: femoral head histology. In kind it is in vivo. To be noted: human equivalent dose of 54 mg/day (4.76 mg/kg/day i.p.), photomicrographs, preliminary evidence, to approximately that of non-ovariectomized animal. From the text:
Three month old ovariectomized (OVX) female Sprague-Dawley rats were purchased from Charles River Laboratories. Animals were maintained in plastic cages under standard environmental conditions with water and standard rat chow available ad libitum at the Animal Facility of the Department of Clinical and Experimental Medicine and Pharmacology of the University of Messina, Messina, Italy.
Dose Calculation—Genistein doses were converted into animal equivalents by using the following formula: (human dose in mg/m^2)=(km)×(dose in mg/kg) where human m^2 for a person of 60 kg (considered as a medium weight for our cohort of post-menopausal women) is 1.62 and km is the conversion factor (for a rat of 250 gr is 7.0) {Freireich, 1966 4611/id}. Therefore, animals given the human equivalent of 54 mg/day were administered 4.76 mg/kg/day. Genistein was diluted in a 1:1 solution of 0.9% NaCl and DMSO and administered by intraperitoneal injection in a volume of […].
Histology—Rat femora decalcified in 4% EDTA for approximately 1 week and then processed for routine paraffin embedding following standard procedures. Sections were cut at the femoral head just proximal to the coxofemoral joint and stained with hematoxylin and eosin.

The next test concerns post-menopausal women. To be noted: administered for one year to post-menopausal women; Morabito et al. 2002; cited from earlier work.
The conditions of test [6]: Ensrud et al., J Bone Miner Res. 2004; cited from earlier work.
Where [7] appears, read: serum, OVX rats, genistein 0-1000 mg/day human dose equivalents i.p., 6 weeks, p<0.001, FIG. 1.

The structures appear in SMILES notation.

With `C=C1CC[C@H](O)C/C1=C/C=C1\CCC[C@]2(C)[C@@H]([C@H](C)CCCC(C)C)CC[C@@H]12` [vitamin D3], the “bone mineral density beyond calcium supplementation alone” value in test [1] was “did not confer benefits”. Moreover, the “lumbar or femoral bone mineral density changes” value in test [2] is “no statistically significant improvement”.
As for `O=c1c(-c2ccc(O)cc2)coc2cc(O)cc(O)c12` [genistein, 4′,5,7-trihydroxyisoflavone], the RANKL/OPG ratio result in the test with ovariectomized rats [3] (OVX rats, genistein i.p., 6 weeks, p<0.001, FIG. 3) was “decreased”. Moreover, in the test on ovariectomized rats [3] (bone markers, BMD and RANKL/OPG ratio, no further significant improvement beyond this dose by post-hoc testing), the “dose at which the genistein effect reached a plateau” value came out at 54 mg human dose equivalent. In the test with ovariectomized rats [3] (setting [7]), the “Bone specific alkaline phosphatase (marker of bone formation)” value was “dose-dependently increased”, the “CTX (marker of bone resorption)” value is reported as “decreased”, the “osteoprotegerin (marker of bone formation)” value is “dose-dependently increased” and the “sRANKL (marker of bone resorption)” value is listed as “decreased”. Further, the “BMD when supplemented with vitamin D3 and calcium” value in the test on ovariectomized rats [4] (equivalent of 54 mg genistein per day, only group showing it) is listed as “statistically significant preservation”. The bone mineral density entry in the test with ovariectomized rats [4] (femur, OVX rats, genistein i.p., 6 weeks, p<0.001, FIG. 2) is recorded as “increases”. The “BMD when supplemented with vitamin D3 or calcium” value with ovariectomized rats [4] (genistein 27, 200, 500 and 1,000 mg human equivalent doses, even worsened in some instances) is listed as “no improvement”. In addition, in the test on ovariectomized rats [4] (genistein at 54 mg/day and above (human dose equivalents)), the “BMD over 6 weeks in calcium and vitamin D3-replete rats” value is “significant increases”. For the same compound, in test [5], the “trabecular architecture (trabecular rod number and thickness) of femoral head” value is on record as “restores trabecular architecture”. In the test with post-menopausal women, the bone mineral density result was “improve” and the “several biochemical markers of bone health” value is on record as “improve”.
As to `NCCCC(O)(P(=O)(O)O)P(=O)(O)O` [alendronate], in test [6], the “reducing fractures beyond 5 years of treatment” value was “no benefit”.

Values taken from US9486438B2, “Combination dosage forms and therapies for supporting bone health” (Primus Pharmaceuticals Inc., priority 2008, dated 2016).
